Source: US7012128B2, “Interaction between cyclin D1 and steroid receptor co-activators and uses thereof in assays” (TopoTarget UK Limited, priority 1998, dated 2006)

Assays:
wild type ER = assay: ERE-TATA-luciferase transactivation of wild type ER in COS-7 cells; type: cell-based; conditions: COS-7, wild type ER, presence of ligand
Procedure: FIG. 1. Mapping of the region of cyclin D1 required for ER-mediated transactivation. • (A) The effect of cyclin D1 deletion mutants on ER activation in the presence of ligand. The cyclin D1 derivatives used in this study are shown in the left panel; right side of Figure represents the relative capacity of the mutants to potentiate ERE-dependent transcription. ER-negative COS-7 cells were transfected with expression vectors for wild type ER (200 ng), cyclin D1 or cyclin D1 mutants (2.5 μg), an internal control §-galactosidase plasmid (0.5 μg) and an ERE-TATA-luciferase reporter (3 μg). The effect on ER transactivation of wild type cyclin D1 was set to 100%. These studies were performed in three separate experiments and expressed as mean values with standard deviation less then […]. The alignment of leucine-rich motif of ER with D-type cyclins are shown on the bottom; the leucine-rich motif in cyclin D1 is indicated as a dark box. The identifiers for the sequences shown are as follows: Cyclin D1 (SEQ ID NO:11), Estrogen receptor (SEQ ID NO:12), the Cyclin D2 (SEQ ID NO:13), and the Cyclin D3 (SEQ ID NO:14). • (B) ER activation by D-type cyclins, cyclin D1 L254/255A point mutant (D1-LALA) and SRC-1 in the presence of ligand. COS-7 cells were transfected with D-type cyclin expression vectors, cyclin D1 Leucine-to-Alanine point mutant (D1-LALA) or SRC-1 expression vector together with wild type ER expression vector, an ERE-TATA-luciferase reporter plasmid and the internal control β-galactosidase construct. Data are expressed as relative luciferase activity compared with basal ERE-luciferase activity of wild type ER and are normalized for transfection efficiencies.
FIG. 3. Role of coactivators in cyclin D1—induced transactivation. • (A) Effect of a dominant negative form of SRC-1 (SRC1-DN) on ER transactivation. SRC1-DN encoding amino acids 1245-1441 of SRC-1 (1, 2.5 and 5 μg) was introduced by transient transfection together with wild type ER (200 ng) and was tested for its ability to modulate ERE-dependent transcription. • (B) Effect of SRCI-DN on SRC-1 and TIF 2 mediated ER transactivation. SRC-1 (3 μg) or TIF-2 (3 μg) were transfected with SRC1-DN (3 μg) and tested for ER transactivation. • (C) Effect of SRC1-DN on cyclin D1-induced transactivation of ER 1-535 mutant. Cyclin D1 was cotransfected with SRC1-DN (1, 2.5, 5 μg) and tested for its effect on an ER harboring a deletion of coactivator binding site in helix 12 (ER 1-535). • (D) Effect of SRC1-DN on cyclin D1-induced transactivation of ER L543/544A mutant. Cyclin D1 and SRC1-DN (1, 2.5, 5 gg) were transfected and tested for the activity of ER helix 12 point mutant (ER L543/544A). The transient transfections (A-C) were performed in COS-7 cells, which were maintained in DMEM with 10 nM ligand. The relative activity was calculated by normalizing to the internal control and was divided by luciferase activity of ER (mutant) in the presence of ligand. The transfection for each set of conditions were done at least in four independent experiments and expressed as average ±SD.
To study how cyclin D1 activates ER, cyclin D1 deletion mutants were tested for their effect on ER-transactivation. COS-7 cells were transfected with cyclin D1 mutants, together with ER and a luciferase reporter gene construct driven by a minimal TATA promoter linked to an estrogen response element (ERE). […] This part of the protein is not involved in CDK interaction and is poorly conserved among the different cyclins. […] To test the relevance of this leucine-rich domain of cyclin D1 in ER activation, a cyclin D1 mutant was constructed in which leucines 254 and 255 were mutated to alanines (D1 L254/255A). This mutation in cyclin D1 is similar to the mutation in ER (ER L543/544A) that interferes with coactivator binding to AF-2 (Danielian et al., 1992). […]

ER = biological target: T1, ER (Homo sapiens, UniProt P03372); assay: ER activation, ERE-reporter gene, in MCF-7 cells; type: cell-based; parameters: T47D and MCF-7, which contain endogenous wild type ER; endogenous in cells; host or cells: MCF-7; T47D; conditions: MCF-7, relative high levels of cyclin D1; 17β-estradiol enriched medium
T1 sequence (P03372 1-595): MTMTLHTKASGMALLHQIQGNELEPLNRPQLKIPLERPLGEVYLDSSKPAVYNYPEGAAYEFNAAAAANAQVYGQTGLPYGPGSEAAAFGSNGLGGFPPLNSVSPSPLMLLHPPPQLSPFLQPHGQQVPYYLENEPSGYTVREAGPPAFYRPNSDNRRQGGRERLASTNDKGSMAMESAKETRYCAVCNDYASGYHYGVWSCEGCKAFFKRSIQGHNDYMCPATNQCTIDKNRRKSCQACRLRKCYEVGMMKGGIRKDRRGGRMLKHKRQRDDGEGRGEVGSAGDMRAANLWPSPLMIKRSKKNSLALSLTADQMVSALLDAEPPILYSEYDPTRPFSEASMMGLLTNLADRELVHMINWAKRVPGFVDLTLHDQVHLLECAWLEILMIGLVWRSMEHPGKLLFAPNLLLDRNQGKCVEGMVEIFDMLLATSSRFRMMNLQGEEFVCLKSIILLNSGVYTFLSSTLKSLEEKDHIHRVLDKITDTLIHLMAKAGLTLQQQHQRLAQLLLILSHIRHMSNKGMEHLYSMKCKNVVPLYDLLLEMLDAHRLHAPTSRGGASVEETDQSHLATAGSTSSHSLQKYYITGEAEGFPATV
Source text: The ER-containing T47D and MCF-7 breast cancer cells were maintained in 17β-estradiol enriched medium with 10%fetal calf serum after cotransfection with a cyclin D1 L254/255A mutant expression vector and an ERE-reporter gene for testing its effect on ER activation (left panel). ER transactivation in the absence of co-expression of the cyclin D1 mutant was set at 100%.
To get more insight in the role of cyclin D1 in ER transactivation in breast cancers with elevated levels of cyclin D1, we have tested the effect of the mutant cyclin D1 L254/255A on ER activation in two different breast cancer cell lines. This cyclin D1 mutant does bind to ER, but fails both to interact with SRC-1 as shown above and consequently fails to activate ER (FIG. 1B). Therefore, this mutant can act as a dominant negative in cyclin D1-mediated ER transactivation as it binds to ER and fails to recruit coactivators. We tested the effect of this cyclin D1 mutant on ER activation in two breast cancer cell lines, T47D and MCF-7, which contain endogenous wild type ER, but differ in their cyclin D1 protein levels (FIG. 6). […] In contrast, in MCF-7, which contain relative high levels of cyclin D1 (FIG. 6), the cyclin D1 mutant inhibited up to 50% of ER activity. Thus, this dominant negative cyclin D1 mutant preferentially interferes with ER activation in breast cancer cells that have high levels of cyclin D1 protein.

- inhibition of ER activity (ER): up to 50%
Substance: Cyclin D1-LALA: cyclin D1 mutant in which leucines 254 and 255 were mutated to alanines; dominant negative
- ER transactivation capacity (wild type ER): virtually unable to activate wild type ER
